Results published in PubChem BioAssay (NCI).
Values joined by “and” are separate entries in the source; they are usually repeats but may differ in a detail not shown here. Equal entries are not always repeated.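 96-well plates; 48 h exposure; 5 concentrations. Endpoints by linear interpolation between flanking doses. Not reached: highest tested concentration assigned. GI50 is the concentration that inhibits growth by half. TGI denotes the concentration required for complete inhibition of growth.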

Key:
Assay in all cases: inhibition of tumour cell growth, NCI panel, 48 h
[1] = test system: A549 NSCLC
[2] = test system: ACHN renal
[3] = test system: COLO 205 colon
[4] = test system: EKVX NSCLC
[5] = test system: HCT-15 colon
[6] = test system: HOP-62 NSCLC
[7] = test system: HOP-92 NSCLC
[8] = test system: HS 578T breast
[9] = test system: HT29 colon
[10] = test system: IGROV1 ovarian
[11] = test system: LOX IMVI melanoma
[12] = test system: M14 melanoma
[13] = test system: MALME-3M melanoma
[14] = test system: MDA-MB-231 breast
[15] = test system: NCI-H460 lung
[16] = test system: NCI-H522 lung
[17] = test system: NCI/ADR-RES ovarian
[18] = test system: OVCAR-3 ovarian
[19] = test system: OVCAR-4 ovarian
[20] = test system: OVCAR-8 ovarian
[21] = test system: PC-3 prostate
[22] = test system: SF-268 CNS
[23] = test system: SF-295 CNS
[24] = test system: SK-MEL-2 melanoma
[25] = test system: SK-MEL-5 melanoma
[26] = test system: SK-OV-3 ovarian
[27] = test system: SN12C renal
[28] = test system: SNB-75 CNS
[29] = test system: SR leukemia
[30] = test system: SW-620 colon
[31] = test system: T-47D breast
[32] = test system: UACC-257 melanoma
[33] = test system: UACC-62 melanoma
[34] = test system: BT-549 breast
[35] = test system: NCI-H226 lung
[36] = test system: NCI-H23 lung
[37] = test system: 786-0 renal
[38] = test system: A498 renal
[39] = test system: CAKI-1 renal
[40] = test system: DU-145 prostate
[41] = test system: HCC-2998 colon
[42] = test system: HCT-116 colon
[43] = test system: MDA-MB-435
[44] = test system: OVCAR-5 ovarian
[45] = test system: RXF 393 renal
[46] = test system: SF-539 CNS
[47] = test system: SK-MEL-28 melanoma
[48] = test system: TK-10 renal
[49] = test system: UO-31 renal
[50] = test system: CCRF-CEM leukemia
[51] = test system: K-562 leukemia
[52] = test system: KM12 colon
[53] = test system: RPMI-8226 leukemia
[54] = test system: SNB-19 CNS
[55] = test system: U251 CNS

c1cc2nnc1SCCSCCSCCSc1ccc(nn1)SCCSCCSCCS2
TGI [1]: > 100 µM | TGI [2]: > 100 µM | TGI [3]: > 100000 nM | TGI [4]: > 100000 nM | TGI [5]: > 100 µM | TGI [6]: > 100 µM | TGI [7]: > 100 µM | TGI [8]: > 100 µM | TGI [9]: > 100000 nM | TGI [10]: > 100000 nM | TGI [11]: > 100 µM | TGI [12]: > 100 µM | TGI [13]: > 100 µM | TGI [14]: > 100 µM | TGI [15]: > 100 µM | TGI [16]: > 100 µM | TGI [17]: > 100 µM | TGI [18]: > 100 µM | TGI [19]: > 100000 nM | TGI [20]: > 100 µM | TGI [21]: > 100 µM | TGI [22]: > 100 µM | TGI [23]: > 100 µM | TGI [24]: > 100 µM | TGI [25]: > 100000 nM | TGI [26]: > 100 µM | TGI [27]: > 100 µM | TGI [28]: > 100000 nM | TGI [29]: > 100000 nM | TGI [30]: > 100 µM | TGI [31]: > 100000 nM | TGI [32]: > 100 µM | TGI [33]: > 100 µM

CCC1NC(=O)C(NC(=O)c2ncccc2O)C(C)OC(=O)C(c2ccccc2)NC(=O)C2CC(=O)CCN2C(=O)C(Cc2ccccc2)N(C)C(=O)C2CCCN2C1=O (centres undefined)
TGI [34]: > 100000 nM | TGI [7]: > 100 µM | TGI [35]: > 100 µM | TGI [36]: > 100000 nM | TGI [32]: > 100 µM

NCCCNc1nc2ccccc2c2c(=O)c3cccc(Cl)c3sc12
GI50 [37]: 1610 nM | TGI [37]: 3050 nM | GI50 [38]: 1020 nM | TGI [38]: 2740 nM | GI50 [2]: 1410 nM | TGI [2]: 2.79 µM | GI50 [34]: 1.45 µM | TGI [34]: 2810 nM | GI50 [39]: 1280 nM | TGI [39]: 2.68 µM | GI50 [40]: 1740 nM | TGI [40]: 3.46 µM | GI50 [4]: 1430 nM | TGI [4]: 2800 nM | GI50 [41]: 1480 nM | TGI [41]: 2980 nM | GI50 [42]: 1340 nM | TGI [42]: 2.7 µM | GI50 [5]: 1.64 µM | TGI [5]: 3.16 µM | GI50 [7]: 1190 nM | TGI [7]: 2.63 µM | GI50 [12]: 1610 nM | TGI [12]: 3.06 µM | GI50 [13]: 1570 nM | TGI [13]: 3 µM | GI50 [14]: 1180 nM | TGI [14]: 2.56 µM | GI50 [43]: 1730 nM | TGI [43]: 3.12 µM | GI50 [36]: 1400 nM | TGI [36]: 2850 nM | GI50 [16]: 1760 nM | TGI [16]: 3.6 µM | GI50 [17]: 1710 nM | TGI [17]: 3.25 µM | GI50 [44]: 1550 nM | TGI [44]: 3.04 µM | GI50 [21]: 1520 nM | TGI [21]: 2.95 µM | GI50 [45]: 1470 nM | TGI [45]: 2.83 µM | GI50 [23]: 1.71 µM | TGI [23]: 3.14 µM | GI50 [46]: 1630 nM | TGI [46]: 3.02 µM | GI50 [24]: 1880 nM | TGI [24]: 3.81 µM | GI50 [47]: 1810 nM | TGI [47]: 3.29 µM | GI50 [25]: 1580 nM | TGI [25]: 2940 nM | GI50 [26]: 1.45 µM | TGI [26]: 2.92 µM | GI50 [27]: 1520 nM | TGI [27]: 3.05 µM | GI50 [28]: 1340 nM | TGI [28]: 2690 nM | GI50 [29]: 606 nM | TGI [29]: 2990 nM | GI50 [48]: 2310 nM | TGI [48]: 3.95 µM | GI50 [33]: 1.67 µM | TGI [33]: 3.17 µM | GI50 [49]: 1030 nM | TGI [49]: 2240 nM

COc1ccc2c(c1)/C(=C\c1c(-c3cc(OC)ccc3OC)nc3sccn13)C(=O)N2
GI50 [37]: 561 nM | TGI [37]: 1780 nM | GI50 [1]: 48.6 µM | TGI [1]: > 100 µM | GI50 [2]: 2370 nM | TGI [2]: 9.74 µM | GI50 [34]: 4.67 µM | GI50 [39]: 3820 nM | TGI [39]: 13.8 µM | GI50 [50]: 6.91 µM | GI50 [3]: 1510 nM | TGI [3]: 2840 nM | GI50 [42]: 1420 nM | TGI [42]: 3.48 µM | GI50 [5]: 7.19 µM and 5.37 µM | TGI [5]: 18.7 µM | GI50 [6]: 1750 nM | TGI [6]: 3.29 µM | GI50 [7]: 1760 nM | TGI [7]: 3.47 µM | GI50 [9]: 1370 nM | TGI [9]: 2660 nM | GI50 [10]: 697 nM | TGI [10]: 2730 nM | GI50 [51]: 5.88 µM | GI50 [52]: 2000 nM | TGI [52]: 3.98 µM | GI50 [11]: 5.22 µM | TGI [11]: 21.5 µM | GI50 [12]: 7140 nM and 1710 nM | TGI [12]: 3.09 µM | GI50 [13]: 1380 nM | TGI [13]: 2.97 µM | GI50 [14]: 3320 nM | TGI [14]: 14.2 µM | GI50 [43]: 2050 nM and 14300 nM | TGI [43]: 4.6 µM and 39 µM | GI50 [35]: 11.8 µM | TGI [35]: 54.2 µM | GI50 [36]: 1470 nM | TGI [36]: 2830 nM | GI50 [15]: 4.39 µM | TGI [15]: > 100 µM | GI50 [17]: 4830 nM and 1700 nM | TGI [17]: 3.39 µM | GI50 [18]: 6.38 µM and 3.51 µM | TGI [18]: 14.3 µM | GI50 [19]: 1530 nM | TGI [19]: 2870 nM | GI50 [44]: 6650 nM and 1730 nM | TGI [44]: 3.1 µM | GI50 [21]: 7970 nM and 2320 nM | TGI [21]: 5.83 µM | GI50 [53]: 3.4 µM | GI50 [45]: 1770 nM | TGI [45]: 3.93 µM | GI50 [22]: 2080 nM | TGI [22]: 4.32 µM | GI50 [23]: 5.31 µM and 18.2 µM | TGI [23]: 44.1 µM | GI50 [24]: 1770 nM | TGI [24]: 4.2 µM | GI50 [47]: 1490 nM | TGI [47]: 2.81 µM | GI50 [26]: 9.29 µM | TGI [26]: 24.6 µM | GI50 [54]: 1720 nM | TGI [54]: 3.54 µM | GI50 [31]: 1320 nM | TGI [31]: 2740 nM | GI50 [48]: 1760 nM | TGI [48]: 3.14 µM | GI50 [55]: 9.76 µM | TGI [55]: 24.5 µM | GI50 [32]: 2170 nM | TGI [32]: 4.43 µM | GI50 [33]: 5.42 µM and 12.4 µM | TGI [33]: 28.5 µM | GI50 [49]: 1570 nM | TGI [49]: 3020 nM
